Experimental data: US20220331303A1, “USE OF AN OREXIN 2 RECEPTOR AGONIST FOR THE TREATMENT OF EXCESSIVE SLEEPINESS” (Takeda Pharmaceutical Company Limited, priority 2019, published 2022)
Read-outs that look alike come from different tables or passages of the source.

Experiment: Single-dose plasma PK of Compound A in subjects with OSA
Assay type: in vivo, human
Conditions: for half-life: read-out: t½, z (converted)
Description: The treatment periods began on Day 1 of Treatment Period 1 (Study Day 1) with Treatment Periods 2 and 3 commencing on Study Days 3 and 5, respectively. In the morning of Day 1 of Treatment Period 1, eligible subjects were randomized to 1 of the 6 sequence groups as listed in Table 36. After randomization, the subject was dosed in 3 treatment periods according to the order defined by the sequence group to which he/she was randomized. On Day 1 of each treatment period, Compound A or placebo was administered as a single 9-hour IV infusion commencing at approximately 08:00. The infusion was terminated at approximately 17:00. On Day 1 of each treatment period, four 40-minute maintenance of wakefulness test (MWT) sessions was performed at 2, 4, 6, and 8 hours after the start of the infusion. Subjects were required to stay awake in between the MWT sessions.
On Day 1 of Treatment Period 1, all eligible subjects were randomized and received the first dose of study drug. Compound A or placebo was administered as a single 9-hour IV infusion commencing at approximately 08:00. On each dosing day (Study Days 1, 3, and 5), 40-minute MWT sessions were performed at 2, 4, 6, and 8 hours after the start of the infusion. There was a minimum 24-hour washout interval between the end of the infusion and the commencement of treatment in subsequent treatment periods to allow for complete elimination of the preceding treatment effect. The KSS and PVT were collected per the Schedule of Study Procedures. Blood samples for determination of Compound A plasma concentrations were collected predose and at specified time points postdose, Safety assessments were recorded. During the study, AEs were recorded, clinical laboratory tests, vital signs, and safety ECGs were obtained. Study Days 2, 4, and 6 were washout days. Subjects were discharged from the unit following completion of study exit procedures in the afternoon of Study Day 6 (Day 2 of Treatment Period 3). Subjects were contacted by telephone approximately 7 days (±2 days) following unit discharge for a safety check.
Blood samples used for PK analysis of Compound A was collected according to Table 38.

[1] = human, intravenous, 44 mg single dose, subjects with OSA, plasma, mean (PK set)
[2] = human, intravenous, 112 mg single dose, subjects with OSA, plasma, mean (PK set)

Plasma Concentration Mean (44 mg, 0 h After Start of Infusion): BLQ
Plasma Concentration Mean (44 mg, 0.17 h From End of Infusion): 53.69 ng/mL
Plasma Concentration Mean (44 mg, 1 h After Start of Infusion): 59.80 ng/mL
Plasma Concentration Mean (44 mg, 1 h From End of Infusion): 29.90 ng/mL
Plasma Concentration Mean (44 mg, 3 h After Start of Infusion): 92.43 ng/mL
Plasma Concentration Mean (44 mg, 4 h From End of Infusion): 15.22 ng/mL
Plasma Concentration Mean (44 mg, 5 h After Start of Infusion): 101.7 ng/mL
Plasma Concentration Mean (44 mg, 7 h After Start of Infusion): 86.37 ng/mL
Plasma Concentration Mean (44 mg, 9 h After Start of Infusion): 90.42 ng/mL
Plasma Concentration Mean (44 mg, 15 h From End of Infusion (24 hours from start of infusion)): 2.462 ng/mL
Ceoi (112 mg single dose, subjects with OSA, plasma, mean (PK set)): 211.6 ng/mL
Plasma Concentration Mean (112 mg, 0 h After Start of Infusion): BLQ
Plasma Concentration Mean (112 mg, 0.17 h From End of Infusion): 139.3 ng/mL
Plasma Concentration Mean (112 mg, 1 h After Start of Infusion): 162.9 ng/mL
Plasma Concentration Mean (112 mg, 1 h From End of Infusion): 77.87 ng/mL
Plasma Concentration Mean (112 mg, 3 h After Start of Infusion): 208.7 ng/mL
Plasma Concentration Mean (112 mg, 4 h From End of Infusion): 34.12 ng/mL
Plasma Concentration Mean (112 mg, 5 h After Start of Infusion): 222.3 ng/mL
Plasma Concentration Mean (112 mg, 7 h After Start of Infusion): 208.9 ng/mL
Plasma Concentration Mean (112 mg, 9 h After Start of Infusion): 211.6 ng/mL
Plasma Concentration Mean (112 mg, 15 h From End of Infusion (24 hours from start of infusion)): 5.962 ng/mL
AUC(0-inf) [1]: 899 ng·h/mL
AUC(0-t) [1]: 884 ng·h/mL
Cmax [1]: 102 ng/mL
clearance [1]: 860 mL/min
concentration at 9 h (human, intravenous, 44 mg single dose, subjects with OSA, plasma, mean (PK set), read-out: Ceoi): 90.4 ng/mL
half-life [1]: 3.79 h
AUC(0-inf) [2]: 2060 ng·h/mL
AUC(0-t) [2]: 2040 ng·h/mL
Cmax [2]: 230 ng/mL
clearance [2]: 954 mL/min
half-life [2]: 3.93 h
Vd (human, plasma, intravenous, 44 mg, 44 mg single dose, subjects with OSA, plasma, mean (PK set), read-out: Vss): 129 L
Vd (human, plasma, intravenous, 44 mg, 44 mg single dose, subjects with OSA, plasma, mean (PK set), read-out: Vz): 278 L
Vd (human, plasma, intravenous, 112 mg, 112 mg single dose, subjects with OSA, plasma, mean (PK set), read-out: Vss): 139 L
Vd (human, plasma, intravenous, 112 mg, 112 mg single dose, subjects with OSA, plasma, mean (PK set), read-out: Vz): 319 L
Structure (SMILES): COC(=O)N1CCC[C@H](NS(C)(=O)=O)[C@@H]1CO[C@H]1CC[C@@H](c2ccccc2)CC1 [Compound A, methyl (2R,3S)-3-((methylsulfonyl)amino)-2-(((cis-4-phenylcyclohexyl)oxy)methyl)piperidine-1-carboxylate]
